# Results published in patent publication US6515103B1 (priority 1996, dated 2003).
# Several values for one entry are separate records, joined by “and”; a condition that tells them apart may be missing. Equal values may be shown once. Read-outs that look alike come from different tables or passages of the source. Marks after values point to notes of the source that are not given here. Where a SMILES comes first, the peptide text is derived from it. [ ]: non-standard residue; d: D form. Gla = N[C@@H](CC(C(=O)O)C(=O)O)C(=O)O
# What was measured:
# [1] = system: young (<2 weeks old) mice; settings: mouse, in vivo
# [2] = system: CF No. 1 mice; settings: mouse, in vivo; for anticonvulsant activity in CF No. 1 mice: sc
# [3] = system: young (<2 weeks old) mice; settings: mouse, in vivo; remark: listed apart in the source
# [4] = system: young (<2 weeks old) mice; settings: mouse, in vivo; remark: listed apart in the source
# [5] = system: Frings audiogenic seizure-susceptible mice; settings: mouse, in vivo
# [6] = system: Frings audiogenic seizure-susceptible mice; settings: mouse, in vivo; remark: listed apart in the source
# [7] = biological target: NR1-1b/NR2B NMDA receptor subtype
# [8] = biological target: kainate receptors (GluR6) (Homo sapiens, UniProt Q13002); format: cell-based
# kainate receptors (GluR6), sequence (Q13002 32-908, species assumed): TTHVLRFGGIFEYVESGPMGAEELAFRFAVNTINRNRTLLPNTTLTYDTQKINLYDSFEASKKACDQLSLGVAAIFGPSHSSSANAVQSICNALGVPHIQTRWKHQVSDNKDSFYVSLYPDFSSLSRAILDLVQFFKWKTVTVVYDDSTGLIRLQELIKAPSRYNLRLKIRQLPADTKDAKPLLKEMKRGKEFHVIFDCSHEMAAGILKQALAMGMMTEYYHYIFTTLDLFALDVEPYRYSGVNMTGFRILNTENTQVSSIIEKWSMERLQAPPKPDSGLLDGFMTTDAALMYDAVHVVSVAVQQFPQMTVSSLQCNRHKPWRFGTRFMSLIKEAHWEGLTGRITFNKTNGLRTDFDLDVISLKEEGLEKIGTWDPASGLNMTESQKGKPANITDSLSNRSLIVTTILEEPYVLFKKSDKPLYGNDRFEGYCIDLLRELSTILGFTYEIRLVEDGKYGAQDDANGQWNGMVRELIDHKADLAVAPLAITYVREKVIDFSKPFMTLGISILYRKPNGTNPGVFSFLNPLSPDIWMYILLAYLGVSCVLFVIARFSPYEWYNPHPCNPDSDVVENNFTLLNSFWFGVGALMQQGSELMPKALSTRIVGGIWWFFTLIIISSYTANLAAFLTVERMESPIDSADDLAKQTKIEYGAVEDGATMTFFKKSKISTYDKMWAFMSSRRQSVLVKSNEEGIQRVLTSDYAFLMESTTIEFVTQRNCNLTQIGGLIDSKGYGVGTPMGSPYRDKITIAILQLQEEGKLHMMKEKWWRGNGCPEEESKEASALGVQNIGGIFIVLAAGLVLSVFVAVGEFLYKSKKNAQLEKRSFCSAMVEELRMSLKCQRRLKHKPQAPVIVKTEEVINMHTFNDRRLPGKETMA
# [9] = biological target: AMPA receptor GluR1 (Homo sapiens, UniProt P42261); format: cell-based
# AMPA receptor GluR1, sequence (P42261 19-906): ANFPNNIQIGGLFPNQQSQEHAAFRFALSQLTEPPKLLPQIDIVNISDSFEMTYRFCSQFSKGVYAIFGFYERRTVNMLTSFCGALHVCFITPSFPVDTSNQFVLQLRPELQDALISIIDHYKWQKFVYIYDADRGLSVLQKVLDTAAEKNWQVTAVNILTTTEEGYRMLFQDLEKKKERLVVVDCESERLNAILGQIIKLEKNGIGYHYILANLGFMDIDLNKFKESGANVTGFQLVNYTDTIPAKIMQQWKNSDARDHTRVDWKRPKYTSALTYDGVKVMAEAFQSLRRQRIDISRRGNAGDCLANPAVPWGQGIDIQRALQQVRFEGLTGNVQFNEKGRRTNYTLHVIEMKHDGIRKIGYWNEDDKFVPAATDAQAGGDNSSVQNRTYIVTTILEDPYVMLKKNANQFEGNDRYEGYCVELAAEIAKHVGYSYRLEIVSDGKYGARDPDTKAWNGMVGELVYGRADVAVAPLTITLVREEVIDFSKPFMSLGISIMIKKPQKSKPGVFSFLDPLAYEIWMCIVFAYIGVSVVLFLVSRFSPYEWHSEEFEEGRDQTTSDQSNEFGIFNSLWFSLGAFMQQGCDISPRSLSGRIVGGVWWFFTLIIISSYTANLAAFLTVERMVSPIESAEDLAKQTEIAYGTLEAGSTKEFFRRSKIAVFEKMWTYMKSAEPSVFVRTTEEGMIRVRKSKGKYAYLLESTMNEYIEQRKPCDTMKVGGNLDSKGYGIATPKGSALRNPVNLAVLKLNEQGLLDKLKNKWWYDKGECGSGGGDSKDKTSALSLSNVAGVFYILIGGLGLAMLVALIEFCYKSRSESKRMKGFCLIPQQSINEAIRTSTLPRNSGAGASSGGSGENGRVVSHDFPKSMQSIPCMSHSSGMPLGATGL
# [10] = system: NR1-1b/NR2B NMDA subtype; test: cell-based
# [11] = biological target: T1, NR1-1b/NR2B NMDA subtype (Homo sapiens, UniProt Q05586+Q13224); test: cell-based
# T1 construct: expressed in transfected cells; host or cells: oocytes
# T1 sequence (Q13224 27-1484, other chains not shown): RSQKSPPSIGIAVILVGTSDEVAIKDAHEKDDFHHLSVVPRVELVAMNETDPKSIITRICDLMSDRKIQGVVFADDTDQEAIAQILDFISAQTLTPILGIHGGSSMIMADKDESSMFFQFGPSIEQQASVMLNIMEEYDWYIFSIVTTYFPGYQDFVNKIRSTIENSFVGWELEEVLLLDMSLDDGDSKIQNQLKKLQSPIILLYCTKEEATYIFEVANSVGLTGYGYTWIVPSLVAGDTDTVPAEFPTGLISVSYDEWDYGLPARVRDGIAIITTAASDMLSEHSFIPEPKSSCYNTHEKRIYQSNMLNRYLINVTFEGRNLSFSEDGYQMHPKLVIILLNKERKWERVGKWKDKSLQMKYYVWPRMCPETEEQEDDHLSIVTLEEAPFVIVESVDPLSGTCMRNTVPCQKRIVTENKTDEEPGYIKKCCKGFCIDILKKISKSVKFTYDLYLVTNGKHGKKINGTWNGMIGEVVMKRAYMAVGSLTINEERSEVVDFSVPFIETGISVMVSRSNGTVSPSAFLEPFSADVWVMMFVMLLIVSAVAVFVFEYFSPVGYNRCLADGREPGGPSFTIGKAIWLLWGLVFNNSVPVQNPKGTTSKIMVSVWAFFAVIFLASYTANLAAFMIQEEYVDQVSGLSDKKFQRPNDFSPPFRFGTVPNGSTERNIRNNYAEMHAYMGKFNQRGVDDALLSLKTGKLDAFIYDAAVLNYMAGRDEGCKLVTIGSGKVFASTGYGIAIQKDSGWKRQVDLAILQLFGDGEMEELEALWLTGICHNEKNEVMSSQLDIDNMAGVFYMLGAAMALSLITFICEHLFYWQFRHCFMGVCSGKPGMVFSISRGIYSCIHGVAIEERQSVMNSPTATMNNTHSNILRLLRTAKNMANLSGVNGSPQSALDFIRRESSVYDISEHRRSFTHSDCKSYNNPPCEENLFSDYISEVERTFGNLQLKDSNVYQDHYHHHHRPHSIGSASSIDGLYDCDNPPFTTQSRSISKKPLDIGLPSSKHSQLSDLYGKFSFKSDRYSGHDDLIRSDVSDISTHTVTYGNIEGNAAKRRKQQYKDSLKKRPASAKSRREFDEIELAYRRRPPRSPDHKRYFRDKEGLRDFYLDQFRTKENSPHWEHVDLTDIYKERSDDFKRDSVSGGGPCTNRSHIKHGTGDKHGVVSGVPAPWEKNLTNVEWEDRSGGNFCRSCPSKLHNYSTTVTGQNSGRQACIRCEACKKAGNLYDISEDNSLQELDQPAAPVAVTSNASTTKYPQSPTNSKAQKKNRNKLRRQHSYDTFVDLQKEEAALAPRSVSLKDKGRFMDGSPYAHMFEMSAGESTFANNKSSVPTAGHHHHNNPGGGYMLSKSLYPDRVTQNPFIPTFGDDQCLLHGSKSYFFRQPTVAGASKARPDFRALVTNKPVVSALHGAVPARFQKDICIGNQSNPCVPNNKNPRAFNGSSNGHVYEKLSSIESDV
# [12] = biological target: T2, NR1 A subtype (Homo sapiens, UniProt Q05586); format: cell-based
# T2 construct: expressed in transfected cells; host or cells: oocytes
# [13] = biological target: T3, NR1.1 B subtype (Homo sapiens, UniProt Q05586); format: cell-based
# T3 construct: expressed in transfected cells; host or cells: oocytes
# [14] = biological target: T4, NR1-1b/NR2D combination (Homo sapiens, UniProt O15399+Q05586); format: cell-based
# T4 construct: expressed in transfected cells; host or cells: oocytes
# T4 sequence (O15399 28-1336, other chains not shown): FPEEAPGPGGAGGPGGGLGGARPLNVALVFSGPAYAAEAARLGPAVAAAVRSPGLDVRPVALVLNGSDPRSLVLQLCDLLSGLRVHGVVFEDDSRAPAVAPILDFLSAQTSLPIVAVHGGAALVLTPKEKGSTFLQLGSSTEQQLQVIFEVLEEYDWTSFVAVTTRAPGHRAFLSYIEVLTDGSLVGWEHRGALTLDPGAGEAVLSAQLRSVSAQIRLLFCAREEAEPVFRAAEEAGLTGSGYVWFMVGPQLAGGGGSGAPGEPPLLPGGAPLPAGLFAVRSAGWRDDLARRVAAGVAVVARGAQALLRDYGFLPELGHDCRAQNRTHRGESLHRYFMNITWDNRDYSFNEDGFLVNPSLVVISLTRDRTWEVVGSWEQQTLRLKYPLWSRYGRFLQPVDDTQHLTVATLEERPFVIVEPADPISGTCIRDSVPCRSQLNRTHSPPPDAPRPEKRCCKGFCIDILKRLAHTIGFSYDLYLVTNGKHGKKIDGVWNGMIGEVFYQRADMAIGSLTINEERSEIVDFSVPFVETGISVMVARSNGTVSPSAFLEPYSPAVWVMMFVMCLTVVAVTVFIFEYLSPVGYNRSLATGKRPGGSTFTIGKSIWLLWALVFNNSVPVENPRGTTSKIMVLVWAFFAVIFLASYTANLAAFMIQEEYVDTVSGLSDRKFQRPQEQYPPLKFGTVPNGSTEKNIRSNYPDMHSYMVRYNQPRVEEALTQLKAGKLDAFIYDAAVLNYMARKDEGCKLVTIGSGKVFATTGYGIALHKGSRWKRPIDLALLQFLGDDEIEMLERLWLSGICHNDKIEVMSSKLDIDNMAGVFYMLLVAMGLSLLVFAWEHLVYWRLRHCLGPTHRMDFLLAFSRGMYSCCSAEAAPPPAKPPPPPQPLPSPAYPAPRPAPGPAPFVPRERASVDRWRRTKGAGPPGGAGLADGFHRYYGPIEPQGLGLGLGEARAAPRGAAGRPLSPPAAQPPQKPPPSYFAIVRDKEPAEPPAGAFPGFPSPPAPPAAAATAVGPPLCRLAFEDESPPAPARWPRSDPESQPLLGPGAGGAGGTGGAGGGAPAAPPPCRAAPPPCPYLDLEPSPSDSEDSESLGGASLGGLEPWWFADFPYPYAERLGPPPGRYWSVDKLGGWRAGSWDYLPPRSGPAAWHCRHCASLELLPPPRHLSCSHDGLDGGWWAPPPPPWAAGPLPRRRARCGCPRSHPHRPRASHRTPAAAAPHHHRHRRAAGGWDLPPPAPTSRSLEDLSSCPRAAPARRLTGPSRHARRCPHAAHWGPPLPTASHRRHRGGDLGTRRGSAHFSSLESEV
# [15] = system: CF #1 Mice; settings: mouse, in vivo
# [16] = biological target: NMDA receptor; test: spermine-stimulated [3H]MK-801 binding assay, inhibition
# [17] = biological target: NMDA receptor
compound,measurement,setting,value
Conatokin L [Con L],"Sleepy Test, positive/tested",[1],4/4
same,anticonvulsant activity in CF No. 1 mice,[2],anticonvulsant activity
same,"Righting Reflex, positive/tested",[3],2/4 and 3/4
same,"Catalepsy Test, positive/tested",[4],4/4 and 3/4
Conantokin Gm [Con Gm],anticonvulsant activity in CF No. 1 mice,[2],anticonvulsant activity
Conantokin Oc [Con Oc],"Sleepy Test, positive/tested",[1],2/3 and 0/3
same,"Righting Reflex, positive/tested",[3],0/3
same,"Catalepsy Test, positive/tested",[4],0/3
"CSCC[C@H](NC(=O)[C@H](CCCCN)NC(=O)[C@H](CCC(N)=O)NC(=O)[C@H](Cc1ccc(O)cc1)NC(=O)[C@H](CC(C(=O)O)C(=O)O)NC(=O)[C@H](CC(C(=O)O)C(=O)O)NC(=O)[C@H](CCC(=O)O)NC(=O)CN)C(=O)N[C@@H](CC(C)C)C(=O)N[C@@H](CC(C(=O)O)C(=O)O)C(=O)N[C@@H](CC(N)=O)C(=O)N[C@@H](CC(C)C)C(=O)N[C@@H](CCCNC(=N)N)C(=O)N[C@@H](CC(C(=O)O)C(=O)O)C(=O)N[C@@H](C)C(=O)N[C@@H](CCC(=O)O)C(=O)N[C@H](C(=O)N[C@@H](CCCCN)C(=O)N[C@@H](CCCCN)C(=O)N[C@@H](CC(N)=O)C(=O)N[C@@H](C)C(N)=O)C(C)C [Con T, Conantokin T] (H-GE[Gla][Gla]YQKML[Gla]NLR[Gla]AEVKKNA-NH2)",P.I.,[5],13
same,TD50,[6],0.228 nmols
same,"behavioral toxicity, rotorod test","[6]; iv, 12 mg/kg",No animals exhibited behavioral toxicity
Conantokin R (peptide),Ki,[7],140 nM
"CC[C@H](C)[C@H](NC(=O)[C@H](CC(N)=O)NC(=O)[C@H](CC(C(=O)O)C(=O)O)NC(=O)[C@H](CCCNC(=N)N)NC(=O)[C@H](C)NC(=O)[C@H](CC(C)C)NC(=O)[C@H](CC(C(=O)O)C(=O)O)NC(=O)[C@H](C)NC(=O)[C@H](C)NC(=O)[C@H](CCSC)NC(=O)[C@H](CCCCN)NC(=O)[C@H](C)NC(=O)[C@@H](NC(=O)[C@H](CC(C(=O)O)C(=O)O)NC(=O)[C@H](CC(C(=O)O)C(=O)O)NC(=O)[C@H](CCC(=O)O)NC(=O)CN)C(C)C)C(=O)N[C@@H](C)C(=O)N[C@@H](CCCCN)C(=O)NCC(=O)N[C@H]1CSSC[C@@H](C(=O)N[C@@H](Cc2ccc(O)cc2)C(=O)N2CCC[C@H]2C(=O)O)NC(=O)[C@H](CC(N)=O)NC(=O)[C@H](C(C)C)NC(=O)[C@H](CCCCN)NC1=O [Con R, Conantokin R]",# Protected/# Tested,[5],4/4
same,ED50,[5],0.013^c nmols and 0.013 nmols
same,"ED50 (pmol, i.c.v.)",[5],9 pmol and 9.00 pmol
same,P.I.,[5],17
same,"Protective Index, PI (TD50/ED50)",[5],18
same,antiseizure activity relative to valproic acid,[5],"greater than 400,000 fold"
same,protective index relative to valproic acid,[5],at least eight times better
same,inhibition of kainate receptors (GluR6),[8],not to inhibit
same,"Sleepy Test, positive/tested",[1],2/3
same,inhibition of AMPA receptor GluR1,[9],not to inhibit
same,affinity for NR1-1b/NR2B relative to NR1-1b/NR2D,[10],greater than 50 fold
same,selectivity for the B splice variant of NR1 in heteromeric complexes,[10],selective for the B splice variant
same,inhibition of heteromeric NR1:NR2B complexes with B splice variant of NR1,[11],inhibited
same,inhibition at 3 µM,[11]; read-out: inhibition of the current produced by the NR1-1b/NR2B NMDA subtype in response to glutamate and glycine,~95%
same,TD50,[6],164 pmol
same,"inhibition of homomeric NR1 complex, A subtype",[12],no effect
same,"inhibition of homomeric NR1 complex, NR1.1 B subtype",[13],only inhibited the NR1.1 B subtype
same,effect on NR1-1b/NR2D combination,[14],not affected
same,MES ED50,[2],0.083 nmols
same,P.I.,[2],3.6
same,anticonvulsant activity in CF No. 1 mice,[2],anticonvulsant activity
same,"Righting Reflex, positive/tested",[3],2/3
same,TD50,[15],˜0.300 nmols
same,"Catalepsy Test, positive/tested",[4],2/3
A^7 Con G (peptide),IC50,[16],45 nM
Conantokin Qu [Con Qu],anticonvulsant activity in CF No. 1 mice,[2],anticonvulsant activity
Conantokin G (peptide),IC50,[16],195 nM
same,IC50,[17],195 nM
Conantokin S1 [Con S1],anticonvulsant activity in CF No. 1 mice,[2],anticonvulsant activity
